# Reference: patent US20220378821A1, “METHODS OF TREATING BRAF-MUTATED CANCER CELLS” (EFFECTOR THERAPEUTICS, INC., priority 2019, published 2022)
# pIC50: −log10 of the molar value. Where two headings read alike, the source gives them in different places.
# Assays:
# [1] = system: RKO xenografts (BRAF mutant); test: In vivo tumor growth inhibition, RKO xenografts
# Procedure: (§1) Athymic nude mice were purchased from Simonsen Laboratories (Gilroy, Calif.). C.B-17 SCID mice were purchased from Charles River (Hollister, Calif.). All animal studies were carried out in accordance with the guidelines established by the Institutional Animal Care and Use Committee at Explora BioLabs (San Diego, Calif.). COLO 205 and RKO cells were purchased from ATCC (Manassas, Va.). COLO 205 cells were maintained in RPMI-1640 supplemented with 10% fetal bovine serum. RKO cells were maintained in DMEM supplemented with 10% fetal bovine serum. For COLO 205 xenograft studies, COLO 205 (2×10^6) cells were implanted subcutaneously into athymic nude mice. On day 8 post-implant, tumors were measured (˜103 mm^3) and tumor-bearing animals were randomized into treatment groups. For RKO xenograft studies, RKO cells (5×10^6) were implanted subcutaneously into C.B-17 SCID mice. On day 11 post-implant, tumors were measured (˜153 mm^3) and tumor-bearing animals were randomized into treatment groups. Animals were dosed orally with vehicle or Compound Y daily. Tumor size and body weight were monitored during the course of the study. Tumor size was measured in length and width with a caliper 2× per week. The tumor volume was calculated by the formula L×W×W/2 according to NCI standards.
# [2] = system: COLO 205 xenografts (BRAF mutant); test: In vivo tumor growth inhibition, COLO 205 xenografts; conditions: for tumor growth inhibition (TGI): COLO 205 xenografts
# Procedure: To test whether eIF4E inhibition affected the growth of BRAF mutant tumors in vivo, COLO 205 cells were grown as tumor xenografts in athymic nude mice and animals were dosed daily with vehicle or Compound Y, having the following structure
# as §1
# [3] = system: panel of 100 tumor cell lines; test: OncoPanel cell proliferation profiling (nuclear dye relative cell count); type: cell-based; conditions: for pIC50: across the panel of 100 cell lines
# Procedure: (§2) In order to assess cellular phenotypes arising from eIF4E inhibition, Compound X was profiled in a panel of 100 tumor cell lines. Compound X was profiled using the OncoPanel Cell-Based Profiling Service (Eurofins Pharma Discovery Services, St. Charles, Mo.). Briefly, cell lines used in the panel were grown in RPMI 1640, 10% FBS, 2 mM L-alanyl-L-glutamine, 1 mM Na pyruvate, or a special medium. Cells were seeded into 384-well plates and incubated in a humidified atmosphere of 5% CO2 at 37° C. Compounds were added the day following cell seeding. At the same time, a time zero untreated cell plate was generated. After a 3-day incubation period, cells were fixed and stained with fluorescently-labeled antibodies and nuclear dye to allow imaging of nuclei, apoptotic cells and mitotic cells.
# (§3) was serially diluted in half-log steps from 10 μM and assayed over 10 concentrations with a maximum assay concentration of 0.1% DMSO. Automated fluorescence microscopy was carried out using a Molecular Devices ImageXpress Micro XL high-content imager, and images were collected with a 4× objective. 16-bit TIFF images were acquired and analyzed with MetaXpress 5.1.0.41 software.
# Cell proliferation was measured by the fluorescence intensity of an incorporated nuclear dye. The output is referred to as the relative cell count, where the measured nuclear intensity is transformed to percent of control (POC) using the following formula: […]
# where Ix the nuclear intensity at concentration x, and I0 is the average nuclear intensity of the untreated vehicle wells.
# Cellular response parameters were calculated using nonlinear regression to a sigmoidal single-site dose response model:
# where y is a response measured at concentration x, A and B are the lower and upper limits of the response, C is the concentration at the response midpoint (EC50), and D is the Hill Slope (Fallahi-Sichani et al., 2013, Nat. Chem. Biol. 9:708-714).
# Cell count IC50 is the test compound concentration at 50% of maximal possible response.
# [4] = system: panel of 100 tumor cell lines; test: OncoPanel apoptosis profiling (activated caspase-3); type: cell-based
# Procedure: as §2, §3
# An antibody to activated caspase-3 was used to label cells from early to late stage apoptosis (Thornberry et al., 1998, Science 281:1312-1316). […] A 5-fold induction in the caspase-3 signal was scored as a significant apoptosis induction.
structure (smiles),measurement,setting,value
Cc1cc(-c2cc(Cl)ccc2OCCn2c(C)nc3cc(C(F)(F)F)c(N4CCN(C)CC4)c(C#N)c3c2=O)c2scc(C(=O)O)c2n1 [Compound Y],tolerability (body weight),"[1]; RKO study, no significant changes in body weight",well tolerated
same,tumor growth inhibition (TGI),"[1]; RKO xenografts, 30 mg/kg orally daily",54%
same,tolerability (body weight),"[2]; COLO 205 study, no significant changes in body weight",well tolerated
same,tumor growth inhibition (TGI),[2]; 3 mg/kg orally daily,49%
same,tumor growth inhibition (TGI),[2]; 30 mg/kg orally daily,89%
Cc1cc(-c2cc(Cl)ccc2OCCn2c(C)nc3cc(C(F)(F)F)c(CN4CCN(C)CC4)c(C#N)c3c2=O)c2scc(C(=O)O)c2n1 [Compound X],pIC50,"[3]; 72 h, 3-day incubation, read-out: median IC50 value for cell proliferation",6.94
same,pIC50,"[3]; upper end printed as >10,000 nM, read-out: distribution of IC50 values for cell proliferation",5.00 to 7.92
same,cell lines tested with IC50 values below the median,"[3]; hematological, head and neck, NSCLC, melanoma, uterine and pancreatic tumor cell lines",> 74%
same,BRAF mutant cell lines among those with significant induction of apoptosis,[4]; of the 36 cell lines with >5-fold activated caspase-3,10
same,cell lines that showed significant induction of apoptosis (>5-fold induction of activated caspase-3),[4]; of the panel of 100 cell lines,36
